Measured values from patent publication US20110263454A1, “Methods of Identifying Functional Characteristics of Promoters, Transcription Modifying Proteins and Transcription Modulating Agents” (Salk Institute for Biological Studies, priority 2008, published 2011).

Key:
mCAR promoter = test: NHR-promoter luciferase screen, mCAR promoter; assay type: cell-based, mouse; conditions: for luciferase activity normalized to lacZ activity and to a control, mCAR: mCAR promoter-luciferase, CV-1 cells, NHR +/- ligand, control = 1.00; for Luc. act., normalized to lacZ / Normalized Luc. act., normalized to control: mCAR promoter, HR/ligand component
Protocol: (§1) The use, feasibility, and reproducibility of the functional NHR-promoter screen in a 48-well format have been tested validated. Briefly, there were co-expressed 50 ng of each NHR/NHR homodimer or NHR/RXR heterodimer with 100 ng promoter/luciferase construct and 50 ng of LacZ (as a control for transfection efficiency) in CV-1 cells using Fugene HD (Roche) as a transfection reagent (alternatively or additionally, a CMV-YFP construct can be used as a transfection control). Each of the nuclear hormone receptors that were used in these experiments was cloned into a pcDNA3.1 vector and comprised a C-terminally linked V5H6 tag. Twenty-four hours after transfection, appropriate ligands were added, where applicable, (see Table 5 for various ligands and concentrations and after 48 hrs, samples were assayed for luciferase and LacZ activity. To measure for luciferase activity 15 ul of sample was added to 30 ul of luciferase buffer (20 mM tricine, 1.07 mM MgCarbonate, 2.67 mM MgSulfate, 0.1 mM Naz-EDTA, 5 mM DTT, 5 mM ATP, 0.15 mg/ml CoA, 0.5 mM Luciferin), mixed briefly, and run in a Perkin Elmer Victor 5 luminometer. Thus, the functional NHR-promoter screen was used to observe the transcriptional activity of 29 promoters from various physiological pathways including inflammation, lipid and sugar metabolism, cholesterol transport, xenobiotic metabolism, and circadian rhythm.
(§2) The promoters that facilitate transcription of the indicated gene products that were tested using the protocols described herein are listed in the first row of the table. The nuclear hormone receptors and, where applicable, ligands that were assayed for their transcriptional effects on the promoters are listed in the first column of the table. The data represent the luciferase activity of each sample normalized to both the lacZ activity of that sample and to a control, e.g., no NHR or ligand, as customary in the art. As described previously, these normalizations allow the transcriptional activity of each reporter cell to be compared to other samples.
(§3) Tables 7-40 show the transcriptional effects of the hormone receptors, and, where applicable, ligands (orphan receptors are screened without ligand), on each individual promoter. […] The control data of each table are shown in their last rows.

mUCP2 promoter = test: NHR-promoter luciferase screen, mUCP2 promoter; assay type: cell-based, mouse; conditions: for Luc. act., normalized to lacZ / Normalized Luc. act., normalized to control: mUCP2 promoter reporter, co-transfected HR, with or without its ligand; for Normalized Luc. act., normalized to control: relative to control; for luciferase activity normalized to lacZ activity and to a control, mUCP2: mUCP2 promoter-luciferase, CV-1 cells, NHR +/- ligand, control = 1.00
Protocol: as §1, §2, §3

mLeptin promoter = test: NHR-promoter luciferase screen, mLeptin promoter; assay type: cell-based, mouse; conditions: for Luc. act., normalized to lacZ / Normalized Luc. act., normalized to control: Table 7, mLeptin; for Results of assays of transcription factor (+/- ligand) with mLeptin: Table 6d, luciferase activity relative to control (control = 1.00)
Protocol: as §1, §2, §3

mPOMC promoter = test: NHR-promoter luciferase screen, mPOMC promoter; assay type: cell-based, mouse; conditions: for Results of assays of transcription factor (+/- ligand) with mPOMC: Table 6d, luciferase activity relative to control (control = 1.00); for Luc. act., normalized to lacZ / Normalized Luc. act., normalized to control: mPOMC promoter, HR component with or without ligand; for Normalized Luc. act., normalized to control: relative to control
Protocol: as §1, §2, §3

hIRF7 promoter = test: NHR-promoter luciferase screen, hIRF7 promoter; assay type: cell-based, human; conditions: for Normalized Luc. act., normalized to control / Luc. act., normalized to lacZ: IRF7 promoter reporter; for Normalized Luc. act., normalized to control: HR without or with its ligand, relative to control; for Luc. act., normalized to lacZ: hormone receptor (HR) without or with its ligand; for hIRF7 promoter reporter activity: transcription factor +/- ligand, control = 1.00
Protocol: as §1, §2, §3

hCYP3A4 promoter = test: NHR-promoter luciferase screen, hCYP3A4 promoter; assay type: cell-based, human; conditions: for Luc. act., normalized to lacZ / Normalized Luc. act., normalized to control: CYP3A4 promoter, HR/ligand component; for hCYP3A4 promoter reporter activity: transcription factor +/- ligand, control = 1.00
Protocol: Briefly, there were co-expressed 50 ng of each NHR/NHR homodimer or NHR/RXR heterodimer with 100 ng promoter/luciferase construct and 50 ng of LacZ (as a control for transfection efficiency) in CV-1 cells using Fugene HD (Roche) as a transfection reagent (alternatively or additionally, a CMV-YFP construct can be used as a transfection control). Each of the nuclear hormone receptors that were used in these experiments was cloned into a pcDNA3.1 vector and comprised a C-terminally linked V5H6 tag.
as §2, §3

Molecule | luciferase activity normalized to lacZ activity and to a control, mCAR (mCAR promoter) | Luc. act., normalized to lacZ (mCAR promoter) | Normalized Luc. act., normalized to control (mCAR promoter) | Luc. act., normalized to lacZ (mUCP2 promoter) | Normalized Luc. act., normalized to control (mUCP2 promoter) | luciferase activity normalized to lacZ activity and to a control, mUCP2 (mUCP2 promoter) | Luc. act., normalized to lacZ (mLeptin promoter) | Normalized Luc. act., normalized to control (mLeptin promoter) | Results of assays of transcription factor (+/- ligand) with mLeptin (mLeptin promoter) | Results of assays of transcription factor (+/- ligand) with mPOMC (mPOMC promoter) | Luc. act., normalized to lacZ (mPOMC promoter) | Normalized Luc. act., normalized to control (mPOMC promoter) | Normalized Luc. act., normalized to control (hIRF7 promoter) | Luc. act., normalized to lacZ (hIRF7 promoter) | hIRF7 promoter reporter activity (hIRF7 promoter) | Luc. act., normalized to lacZ (hCYP3A4 promoter) | Normalized Luc. act., normalized to control (hCYP3A4 promoter) | hCYP3A4 promoter reporter activity (hCYP3A4 promoter) | luciferase/LacZ, mLeptin (selected results) (mLeptin promoter; mLeptin promoter-luciferase, NHR +/- ligand, control = 1.0) | regulation of the Constitutive Androstane Receptor (CAR) promoter (mCAR promoter; FIG. 2a, in words)
RXRa: Retinoic X Receptor α (NR2B1), cDNA driver | 0.97 | 36.9 | 1.0 | 137.8 | 1.3 | 1.25 | 2.3 | 0.8 | 0.77 | 0.99 | 68.0 | 1.0 | 1.0 | 27.5 | 1.04 | 1.5 | 0.3 | 0.35 |  | 
NR4a1: NR4a1 (NR4A1; NUR77), nuclear hormone receptor cDNA driver | 0.94 | 35.66 | 0.9 | 265.6 | 2.4 | 2.42 | 2.3 | 0.8 | 0.80 | 3.58 | 246.9 | 3.6 | 2.3 | 61.0 | 2.31 | 6.2 | 1.4 | 1.40 | 0.8 | 
TLX: Tailless (homolog of drosophila) (NR2E1), cDNA driver | 0.39 | 15.0 | 0.4 | 111.9 | 1.0 | 1.02 | 2.6 | 0.9 | 0.89 | 0.74 | 51.1 | 0.7 | 2.1 | 55.0 | 2.09 | 4.0 | 0.9 | 0.90 |  | 
PPARa: Peroxisome proliferator activated receptor α (NR1C1), cDNA driver | 0.88 | 33.6 | 0.9 | 167.3 | 1.5 | 1.52 | 2.4 | 0.8 | 0.81 | 1.13 | 77.6 | 1.1 | 1.4 | 36.6 | 1.39 | 3.4 | 0.8 | 0.76 |  | 
SF-1: Steroidogenic Factor 1 (NR5A1, SF1), cDNA driver | 2.43 | 92.6 | 2.4 | 449.3 | 4.1 | 4.09 | 4.7 | 1.6 | 1.60 | 8.37 | 577.5 | 8.4 | 2.5 | 65.5 | 2.49 | 10.6 | 2.4 | 2.39 |  | 
HNF4a: Hepatocyte Nuclear Factor α (NR2A1), cDNA driver (protein, UniProt P41235 1-474, looked up) Hepatocyte nuclear factor …: MRLSKTLVDMDMADYSAALDPAYTTLEFENVQVLTMGNDTSPSEGTNLNAPNSLGVSALCAICGDRATGKHYGASSCDGCKGFFRRSVRKNHMYSCRFSRQCVVDKDKRNQCRYCRLKKCFRAGMKKEAVQNERDRISTRRSSYEDSSLPSINALLQAEVLSRQITSPVSGINGDIRAKKIASIADVCESMKEQLLVLVEWAKYIPAFCELPLDDQVALLRAHAGEHLLLGATKRSMVFKDVLLLGNDYIVPRHCPELAEMSRVSIRILDELVLPFQELQIDDNEYAYLKAIIFFDPDAKGLSDPGKIKRLRSQVQVSLEDYINDRQYDSRGRFGELLLLLPTLQSITWQMIEQIQFIKLFGMAKIDNLLQEMLLGGSPSDAPHAHHPLHPHLMQEHMGTNVIVANTMPTHLSNGQMCEWPRPRGQAATPETPQPSPPGGSGSEPYKLLPGAVATIVKPLSAIPQPTITKQEVI | 16.83 | 641.2 | 16.8 | 136.4 | 1.2 | 1.24 | 2.5 | 0.8 | 0.84 | 0.90 | 62.0 | 0.9 | 1.4 | 36.0 | 1.36 | 1.7 | 0.4 | 0.37 |  | Specific and strong activation
